Series [1] relates to Staphylococcus aureus ATCC 6538P. As to the method: (§1) The antibacterial activity of the peptides was examined in sterile 96-well plates (Nunc F96 microtiter plates) in a final volume of 100 μl as follows: Aliquots (50 μl) of a suspension containing bacteria at concentration of 1×10^6 Colony-Forming Units (CFU)/ml in culture LB (Lauria broth) medium were added to 50 μl of water containing the peptide in serial 2-fold dilutions in water. Inhibition of growth was determined by measuring the absorbance at 600 nm with a Microplate autoreader E1309 (Bio-tek Instruments), after an incubation time of 18-20 h at 37° C. Antibacterial activities were expressed as the minimal inhibitory concentration (MIC), the concentration at which 100% inhibition of growth was observed after 18-20 h of incubation. […]
(§2) The antibacterial activity of the resulting liposomal diastereomeric peptide preparations were examined as described in Example 2 above. The MICs of liposomal peptide 9 in various lipid compositions and peptide/lipid ratios (as described above), or of liposomes at lipid compositions equivalent to the loaded_liposomes (not shown) or peptide 9 alone, were determined using the following bacteria: Acinetobacter baumannii ATCC 19606, and Staphylococcus aureus ATCC 6538P.

For series [2], the system named is Acinetobacter baumannii ATCC 19606. As to the method: as §1, §2
The subject of series [3] is B16 F10 mouse melanoma cell line. As to the kind of experiment: In vitro anticancer activity, Trypan blue cell viability, LC50. To be noted: 50% cell mortality after 24 h incubation, medium without serum. As to the method:
The anticancer activity of the diastereomers 1, 2, 8, 9 and 10 was examined against B16 F10 mouse melanoma cell line. Melanoma cells were grown in RPMI-1640 medium supplemented with 10% fetal calf serum and antibiotics, at 37° C., in humidified atmosphere at 5% CO2 and 95% air. In addition, the cell-selectivity of the diastereomeric peptides was studied by examining their effect on NIH-3T3 normal fibroblasts cell line. NIH-3T3 mouse fibroblasts cells were grown in DMEM medium supplemented with 10% bovine calf serum and antibiotics under the same conditions as described above for B16 F10 mouse melanoma cells. Melanoma cells (2×10^5 cells ml^−1) or NIH-3T3 cells (2.5×10^5 cells ml^−1) were seeded in tissue culture plates (3.5 cm). After 48 h, cells were washed thrice with the corresponding medium. Then the cells were incubated at 37° C. in medium (without serum and antibiotics) in the presence of the tested diastereomeric peptides dissolved in PBS, at different concentrations. […] Following 24 h of incubation, the cells were harvested with trypsin (0.25%)-EDTA (0.05%) and centrifuiged for 10 min at 270×g. The precipitated cells were suspended in the corresponding medium and counted in a hemocytometer (Neubauer). Cell viability was determined by Trypan blue dye exclusion.

The test system of another series is A549 lung carcinoma. The format is cell-based, human. Conditions: 24 h. The procedure: (§3) Aliquots of 100 μl of tumor cell suspension (about 2.5-5×10^3/well) were placed in 96-well microtiter plates in an atmosphere of 5% CO2 at 37° C. […] At the end of incubation, 20 μl of AlamarBlue 75% reagent was added to each well for another 6-hour incubation before detection of cell viability by fluorescence intensity. Fluorescence intensity was measured using a Spectraflour Plus plate reader with excitation at 530 nm and emission at 590 nm. The assays were used to detect changes in cell proliferation based on the ability of viable cells to cause AlamarBlue to change from its oxidized (non-fluorescent, blue) to a reduced (fluorescent, red) form. With the results obtained from the AlamarBlue reaction, cell proliferation can be quantified and metabolic activity of viable cells can be examined.

Series [4] concerns SK-MEL- (ATCC HTB-70) malignant melanoma. The format is cell-based, human. To be noted: 24 h. The procedure: as §3
Series [5] relates to PC-3 prostate adenocarcinoma. Format: cell-based, human. Conditions: 24 h. As to the method: as §3
Series [6] relates to HT-29 colon adenocarcinoma. The format is cell-based, human. To be noted: 24 h. As to the method: as §3
In series [7] the test system is MCF-7 breast adenocarcinoma. The format is cell-based, human. To be noted: 24 h. As to the method:
as §3

In a further series the test system is human breast MCF-7 cells. Description: Xenograft model of human breast MCF-7 cells in SCID mice. The format is in vivo. Conditions: mouse, in vivo. As to the method: The in-vivo anticancer assay was conducted on SCID (Severe Combined Immune Deficiency) mice using the xenograft model of human breast MCF-7 cells. Groups of 6 SCID female mice weighing 18-20 g (6-week old), bred in an animal isolator (IVC racks under specific pathogen-free (SPF) conditions at 24±1° C., were used. Viable human breast carcinoma MCF-7 cells (ATCC HTB-22−1×10^7 cells in 0.2 ml of PBS) were injected subcutaneously (s.c.) into the dorsal side of SCID mice. 50 μg/mouse of estradiol benzoate was injected s.c. weekly as a supplement for 4 weeks. […] Mitomycin at a dose of 2 mg/kg was administered intraperitoneally (IP) twice a week for 5 doses. The tumor size, body weight and the signs of overt animal toxicity after each treatment were recorded and observed. At the end of the experiment, hematological analysis was carried out.

Series [8] is described as follows: Cell selectivity, Trypan blue cell viability, LC50. The format is cell-based, mouse. To be noted: mouse, NIH-3T3 fibroblasts; 50% cell mortality after 24 h incubation, medium without serum; read-out: Lethal Concentration (LC50), NIH-3T3 fibroblasts.
Series [9] is described as follows: In vivo toxicity, single i.v. bolus injection in CD1 mice. On the set-up: species or system CD1 male mice. The procedure:
The in vivo toxicity of the liposomal peptide 9 preparation composed of the lipids PC/PG (9:1 w/w) at a 10:1 w/w lipid/peptide ratio was examined. Groups of 5 CD1 male mice weighing 24-27 g (5-week old), bred in an animal isolator (IVC racks) under specific pathogen-free (SPF) conditions at 24±1° C., were used. Twelve mg/kg liposomal peptide 9 or peptide 9 alone dissolved in PBS in a dosing volume of 10 ml/kg, were administered by single i.v. bolus injection via the mice tail vein. In parallel, control groups received i.v. injections of equivalent liposomes alone or PBS in a dosing volume of 10 ml/kg.

From patent publication US20040053847A1, “Diastereomeric peptitdes and pharmaceutical compositions comprising them” (priority 2000, published 2004) come the findings set out here.

Each structure is given as a SMILES string. Values after ≈ are worked out from the molar mass of the structure shown. Square brackets hold non-standard residues; d marks the D form. Peptide text beside a SMILES is read from it.

For the molecule `CC(C)C[C@H](NC(=O)[C@H](CCCNC(=N)N)NC(=O)[C@@H](CC(C)C)NC(=O)[C@H](CC(C)C)NC(=O)[C@@H](N)CCCCN)C(=O)N[C@@H](CC(C)C)C(=O)N[C@H](CCCCN)C(=O)N[C@H](CCCCN)C(=O)N[C@@H](CC(C)C)C(=O)N[C@H](CC(C)C)C(=O)N[C@@H](CCCNC(=N)N)C(=O)N[C@@H](CC(C)C)C(=O)N[C@H](CC(C)C)C(=O)N[C@@H](CC(C)C)C(=O)N[C@@H](CCCCN)C(N)=O` [Peptide 9, [D]-L^3,10,13,K^7,8-K4R2L9] (H-KL[dL]RLL[dK][dK]L[dL]RL[dL]LK-NH2), in series [1], the “MIC of liposomal peptide 9, S. aureus” value worked out at 12.5 µg/mL. Besides, in [2], the “MIC of liposomal peptide 9, A. baumannii” value is 3.1 µg/mL. The “Lethal Concentration (LC50), B16-F10 melanoma” value in [3] is 2 µg/mL. Moreover, the 50% inhibitory concentration (IC50) in the series on A549 lung carcinoma came to 1400 nM; in [4], 1200 nM; in series [5], 1600 nM; in [6] it was 2200 nM; in series [7] it was 3300 nM. In the series with human breast MCF-7 cells, this molecule showed a PLT of 1.31e+06 µL⁻¹. Further, the RBC with human breast MCF-7 cells is given as 11.18 ± 0.11 × 10^6/μl. Also, the “Reduction of RBC” value in the series on human breast MCF-7 cells was “only a slight reduction in RBC”. Also, in the series on human breast MCF-7 cells, the “Reduction of WBC and platelets” value is “did not cause a reduction in WBC and platelets”. In the series with human breast MCF-7 cells, this molecule displayed a WBC of 2220 µL⁻¹. Further, in series [8], the CC50 at 24 h turned out to be 30 µg/mL (≈ 16.1 µM). The molecule also returned a Mortality in series [9] (12 mg/kg injected i.v.) of 80%. In [9] (12 mg/kg single i.v. injection), the Incidence of mortality is 4/5.
